These results are taken from patent publication US9834558B2, “Substituted bridged urea analogs as sirtuin modulators” (GLAXOSMITHKLINE LLC, priority 2013, dated 2017).

This experiment concerns the target T1, SIRT1 (Homo sapiens, UniProt Q96EB6).
T1 sequence (Q96EB6 1-747): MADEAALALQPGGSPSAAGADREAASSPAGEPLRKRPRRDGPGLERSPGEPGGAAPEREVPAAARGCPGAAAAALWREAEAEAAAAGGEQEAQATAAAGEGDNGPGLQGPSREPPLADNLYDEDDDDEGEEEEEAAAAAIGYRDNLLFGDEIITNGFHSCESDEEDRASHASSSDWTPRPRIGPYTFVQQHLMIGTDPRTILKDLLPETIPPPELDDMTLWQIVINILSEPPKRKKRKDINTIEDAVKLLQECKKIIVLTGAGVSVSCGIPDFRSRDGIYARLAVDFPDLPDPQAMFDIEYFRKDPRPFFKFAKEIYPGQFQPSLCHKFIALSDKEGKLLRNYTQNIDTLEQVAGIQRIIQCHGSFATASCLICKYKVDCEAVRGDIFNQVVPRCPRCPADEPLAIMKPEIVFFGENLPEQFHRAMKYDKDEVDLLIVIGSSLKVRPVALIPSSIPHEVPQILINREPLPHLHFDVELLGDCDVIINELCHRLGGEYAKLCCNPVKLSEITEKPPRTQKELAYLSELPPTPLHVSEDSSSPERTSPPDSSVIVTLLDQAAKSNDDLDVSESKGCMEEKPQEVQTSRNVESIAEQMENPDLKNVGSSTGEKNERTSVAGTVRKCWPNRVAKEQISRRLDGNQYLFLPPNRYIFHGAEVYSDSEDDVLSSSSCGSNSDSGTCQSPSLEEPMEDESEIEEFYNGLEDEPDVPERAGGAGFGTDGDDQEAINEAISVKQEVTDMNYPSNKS
Kind of experiment: Trp mass spectrometry assay of SIRT1 activation. The class given is biochemical. The conditions noted are these: Trp peptide assay; for TRP Activity (EC1.5): EC1.5 = concentration that results in 150% activation of SIRT1; for Emax: maximum activity relative to control (100%), read-out: TRP MAX RESP (percent maximum fold activation). The procedure, abridged: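 N-terminal His-tagged human SIRT1 (10 nM, E. coli BL21(DE3)) with 0.5 μM Ac-RHKK(Ac)W-NH2 peptide and 120 μM βNAD+, 25 min at 25 °C in HEPES pH 7.5, formic acid stop. OAADPR or deacetylated peptide quantified by mass spectrometry; EC1.5 (50% activity increase over control) and Percent Maximum Activation reported.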

For the compound `O=C(Nc1cnccn1)N1c2nc(-c3ccc(CO)nc3)ccc2N2CC[C@H]1C2` [(9S)-5-[6-(hydroxymethyl)pyridin-3-yl]-N-(pyrazin-2-yl)-1,6,8-triazatricyclo[7.2.1.0 {2,7}]dodeca-2(7),3,5-triene-8-carboxamide], the “TRP Activity (EC1.5)” value is recorded as “B (B (EC1.5 1-25 μM))” and the Emax is greater than 150%.
As for `O=C(Nc1cnccn1)N1c2nc(-c3cnc(C4CC4)c(C(F)(F)F)c3)ccc2N2CC[C@H]1C2` [(9S)-5-[6-cyclopropyl-5-(trifluoromethyl)pyridin-3-yl]-N-(pyrazin-2-yl)-1,6,8-triazatricyclo[7.2.1.0 {2,7}]dodeca-2,4,6-triene-8-carboxamide], the “TRP Activity (EC1.5)” value is reported as “A (A (EC1.5<1 μM))” and the Emax is greater than 150%.
In the case of `CC[C@@H]1CN(c2ccc3c(n2)N(C(=O)Nc2cnccn2)[C@H]2CCN3C2)CCO1` [(9S)-5-[(2R)-2-ethylmorpholin-4-yl]-N-(pyrazin-2-yl)-1,6,8-triazatricyclo[7.2.1.0^{2,7}]dodeca-2(7),3,5-triene-8-carboxamide], the “TRP Activity (EC1.5)” value is reported as “B (B (EC1.5 1-25 μM))” and the Emax was greater than 150%.
On to `C[C@@H]1CN(c2ccc3c(n2)N(C(=O)Nc2cnccn2)[C@H]2CCN3C2)CCO1` [(9S)-5-[(2R)-2-methylmorpholin-4-yl]-N-(pyrazin-2-yl)-1,6,8-triazatricyclo[7.2.1.0 {2,7}]dodeca-2,4,6-triene-8-carboxamide], for which the “TRP Activity (EC1.5)” value is “B (B (EC1.5 1-25 μM))” and the Emax was greater than 150%.
The corresponding values for `C[C@@H]1CN(c2ccc3c(n2)N(C(=O)Nc2cnccn2)[C@H]2CCN3C2)C[C@H](C)O1` [(9S)-5-[(2R,6S)-2,6-dimethylmorpholin-4-yl]-N-(pyrazin-2-yl)-1,6,8-triazatricyclo[7.2.1.0 {2,7}]dodeca-2(7),3,5-triene-8-carboxamide] are “B (B (EC1.5 1-25 μM))” and greater than 150%.
In the case of `C[C@H]1CN(c2ccc3c(n2)N(C(=O)Nc2cnccn2)[C@H]2CCN3C2)CCO1` [(9S)-5-[(2S)-2-methylmorpholin-4-yl]-N-(pyrazin-2-yl)-1,6,8-triazatricyclo[7.2.1.0 {2,7}]dodeca-2,4,6-triene-8-carboxamide], the “TRP Activity (EC1.5)” value is on record as “B (B (EC1.5 1-25 μM))” and the Emax is greater than 150%.
Take `C[C@H]1CNCCN1c1ccc2c(n1)N(C(=O)Nc1cnccn1)[C@H]1CCN2C1` [(9S)-5-[(2S)-2-methylpiperazin-1-yl]-N-(pyrazin-2-yl)-1,6,8-triazatricyclo[7.2.1.0 {2,7}]dodeca-2,4,6-triene-8-carboxamide]: the “TRP Activity (EC1.5)” value was “C (C (EC1.5>25 μM))” and the Emax was less than 150%.
Consider `C[C@H]1CN(c2ccc3c(n2)N(C(=O)Nc2cnccn2)[C@H]2CCN3C2)C[C@H](C)O1` [(9S)-5-[(2S,6S)-2,6-dimethylmorpholin-4-yl]-N-(pyrazin-2-yl)-1,6,8-triazatricyclo[7.2.1.0^{2,7}]dodeca-2(7),3,5-triene-8-carboxamide], for which the “TRP Activity (EC1.5)” value is given as “B (B (EC1.5 1-25 μM))” and the Emax was greater than 150%.
As to `O=C(c1ccc2c(n1)N(C(=O)Nc1ccccn1)[C@H]1CCN2C1)N1CCC(F)(F)C1` [(9S)-5-[(3,3-difluoropyrrolidin-1-yl)carbonyl]-N-(pyridin-2-yl)-1,6,8-triazatricyclo[7.2.1.0 {2,7}]dodeca-2(7),3,5-triene-8-carboxamide], the “TRP Activity (EC1.5)” value is recorded as “B (B (EC1.5 1-25 μM))” and the Emax was greater than 150%.
For the compound `C[C@@H]1COCCN1c1ccc2c(n1)N(C(=O)Nc1cccnc1)[C@H]1CCN2C1` [(9S)-5-[(3R)-3-methylmorpholin-4-yl]-N-(pyridin-3-yl)-1,6,8-triazatricyclo[7.2.1.0 {2,7}]dodeca-2(7),3,5-triene-8-carboxamide], the “TRP Activity (EC1.5)” value is “B (B (EC1.5 1-25 μM))” and the Emax is greater than 150%.
On to `C[C@@H]1CN(c2ccc3c(n2)N(C(=O)Nc2cnccn2)[C@H]2CCN3C2)CCN1` [(9S)-5-[(3R)-3-methylpiperazin-1-yl]-N-(pyrazin-2-yl)-1,6,8-triazatricyclo[7.2.1.0 {2,7}]dodeca-2,4,6-triene-8-carboxamide], for which the “TRP Activity (EC1.5)” value is “C (C (EC1.5>25 μM))” and the Emax is less than 150%.
In the case of `O=C(Nc1cccnc1)N1c2nc(N3CCOC[C@@H]3CO)ccc2N2CC[C@H]1C2` [(9S)-5-[(3S)-3-(hydroxymethyl)morpholin-4-yl]-N-(pyridin-3-yl)-1,6,8-triazatricyclo[7.2.1.0 {2,7}]dodeca-2(7),3,5-triene-8-carboxamide], the “TRP Activity (EC1.5)” value is recorded as “C (C (EC1.5>25 μM))” and the Emax was less than 150%.
As to `C[C@H]1COCCN1c1ccc2c(n1)N(C(=O)Nc1cccnc1)[C@H]1CCN2C1` [(9S)-5-[(3S)-3-methylmorpholin-4-yl]-N-(pyridin-3-yl)-1,6,8-triazatricyclo[7.2.1.0^2,7]dodeca-2(7),3,5-triene-8-carboxamide], the “TRP Activity (EC1.5)” value is on record as “B (B (EC1.5 1-25 μM))” and the Emax was greater than 150%.
Take `O=C(Nc1ccccc1CCC(F)(F)F)N1c2nc(Cl)ccc2N2CC[C@H]1C2` [(9S)-5-chloro-N-[2-(3,3,3-trifluoropropyl)phenyl]-1,6,8-triazatricyclo[7.2.1.0 {2,7}]dodeca-2(7),3,5-triene-8-carboxamide]: the “TRP Activity (EC1.5)” value is “B (B (EC1.5 1-25 μM))” and the Emax is greater than 150%.
As for `N#Cc1ccc2c(n1)N(C(=O)Nc1cnccn1)[C@H]1CCN2C1` [(9S)-5-cyano-N-(pyrazin-2-yl)-1,6,8-triazatricyclo[7.2.1.0 {2,7}]dodeca-2(7),3,5-triene-8-carboxamide], the “TRP Activity (EC1.5)” value is recorded as “C (C (EC1.5>25 μM))” and the Emax is less than 150%.
In the case of `O=C(NC(CO)C(F)(F)F)c1ccc2c(n1)N(C(=O)Nc1ccccn1)[C@H]1CCN2C1` (stereo partly drawn) [(9S)-8-N-(pyridin-2-yl)-5-N-(1,1,1-trifluoro-3-hydroxypropan-2-yl)-1,6,8-triazatricyclo[7.2.1.0^{2,7}]dodeca-2(7),3,5-triene-5,8-dicarboxamide], the “TRP Activity (EC1.5)” value is “A (A (EC1.5<1 μM))” and the Emax was greater than 150%.
In the case of `COCC(NC(=O)c1ccc2c(n1)N(C(=O)Nc1ccccn1)[C@H]1CCN2C1)C(F)(F)F` (stereo partly drawn) [(9S)-8-N-(pyridin-2-yl)-5-N-(1,1,1-trifluoro-3-methoxypropan-2-yl)-1,6,8-triazatricyclo[7.2.1.0^{2,7}]dodeca-2(7),3,5-triene-5,8-dicarboxamide], the “TRP Activity (EC1.5)” value is reported as “A (A (EC1.5<1 μM))” and the Emax is greater than 150%.
Take `O=C(NCC(F)(F)F)c1ccc2c(n1)N(C(=O)Nc1ccccn1)[C@H]1CCN2C1` [(9S)-8-N-(pyridin-2-yl)-5-N-(2,2,2-trifluoroethyl)-1,6,8-triazatricyclo[7.2.1.0 {2,7}]dodeca-2(7),3,5-triene-5,8-dicarboxamide]: the “TRP Activity (EC1.5)” value was “A (A (EC1.5<1 μM))” and the Emax was greater than 150%.
In the case of `Cc1cc(-c2ccc3c(n2)N(C(=O)N2CCN(C)CC2)[C@H]2CCN3C2)ccn1` [(9S)-8-[(4-methylpiperazin-1-yl)carbonyl]-5-(2-methylpyridin-4-yl)-1,6,8-triazatricyclo[7.2.1.0 {2,7}]dodeca-2,4,6-triene], the “TRP Activity (EC1.5)” value is “C (C (EC1.5>25 μM))” and the Emax was less than 150%.
